From patent US8420638B2, “Triheterocyclic compounds and compositions thereof” (Gemin X Pharmaceuticals Canada Inc., priority 2003, dated 2013)
Counter-ions that a name gives are not always drawn.

Key:
[1] = Body weight and deaths of tumor-bearing SCID mice under treatment; format: in vivo, CB17 SCID/SCID mice; details: for change in body weight: 4.5 mg/kg IV once daily for five days, FIG. 2
Protocol: (§1) There were three treatment groups of ten mice each: (a) a negative control group, (b) a positive control group and (c) a group treated with Compound 1 Tartrate.
(§2) Treatments started on day fourteen after C33A cells transplantation. Compound 1 Tartrate was administered IV once daily for five consecutive days at a dose of 4.5 mg/kg. Compound 1 Tartrate was prepared fresh daily in a vehicle solution of 5% Dextrose (Abbot Laboratories, QC, Canada) and 2% polysorbate 20 (Sigma, St. Louis, Mo., USA). The negative control group was treated with vehicle alone. The injection volume for both Compound 1 Tartrate group and the negative control group was 150 μl.
(§3) Observation continued for 40 days after initial tumor implantation.

[2] = system: C33A human cervical cancer cells; test: Growth of C33A cervical tumors in SCID mice; format: in vivo, CB17 SCID/SCID mice
Protocol: as §1, §2, §3

[3] = Solubility (0.2 μM filtration, LC/MS); format: physicochemical
Protocol: To determine whether a compound is soluble in a solution, the solution was filtered on 0.2 μM polytetrafluoroethylene filters (Whatman Inc. Clifton, N.J., USA) and the compound concentration in the filtrate was measured by LC/MS and compared to the expected concentration.
The column used was XTerra MS C18: 50×2.1 mm, 3.5 mm column at 20° C. Samples were injected and separated under the following conditions: The mobile phase “A” consisted of 5 mM ammonium formate, 0.1% formic acid in water and mobile phase “B” consisted of 5 mM ammonium formate, 0.1% formic acid in methanol. […] The Mass Spectrometer system consisted of a Waters ZQ2000 single quadrupole mass spectrometer (Waters, Milford, Mass., USA) equipped with an Electrospray Ionization Source (ES). The mass detector was operated in positive ion mode (ES+) and Selected Ion Recording mode (SIR). Compounds were detected at m/z equal to their respective molecular weight plus 1.

[4] = Shelf stability (precipitation) of the formulated compound; format: physicochemical; details: 0.6 mg/mL in 9.6% polyethylene glycol 300, 0.4% polysorbate 20 and 5% dextrose
Protocol: Compound 1 Tartrate salt solubility is equal to 0.1 mg/mL. […] This increase in solubility has a positive impact on the shelf stability of formulated Compound 1.

[5] = system: cancer cell lines H1299 and C33A; normal cell lines HMEC and MRC-5; test: ATP levels in cancer versus normal cell lines (FIG. 1); format: cell-based; details: 72 hours after treatment with 0.5 μM
Protocol: One day after plating, the cells were treated with various concentrations of Compound 1 Tartrate. Stock solutions of the Compound 1 Tartrate were prepared in dimethyl sulfoxide (Sigma-Aldrich Inc., St. Louis, Mo., USA), diluted in the recommended media and then added to the cells. The total dimethyl sulfoxide on the cells was 1%. […] The results were plotted relative to untreated control cells, which were set at a value of 100.

[6] = system: human prostatic adenocarcinoma cancer PC3 cells; test: Growth of PC3 prostatic tumors in SCID mice; format: in vivo; details: 5 consecutive intravenous injections; 4.84 μMoles/Kg (Compound 1 Mesylate Salt), 4.84 or 14.51 μMoles/Kg (Compound 66); FIG. 6
Protocol: The human prostatic adenocarcinoma cancer PC3 cells were purchased from the American Type Culture Collection (ATCC). These cells were confirmed to be free of mycoplasma infection. Cells were maintained in the Roswell Park Memorial Institute (RPMI), supplemented with 10% inactivated fetal bovine serum and 1% penicillin-streptomycin-L-Glutamine, under 5% carbon dioxide (CO2) at 37° C. For prostatic-tumor induction, cells were grown lower than 70% confluence in complete medium and then collected with trypsin (Bio Whittaker, Rockland, Me., USA). Cells were then centrifuged and washed 2 times in phosphate buffer solution (PBS) and resuspended in PBS at 1.5×10^6 cells/0.1 mL. PC3 cells were then transplanted subcutaneously into the flank of SCID mice (Charles River Laboratories, Wilmington, Mass., USA), as a suspension of tumor cells (1.5×10^6 cells in 100 μL PBS), under a laminar airflow hood. Eleven (11) days later, the size of each tumor was measured. […] Relative tumor size and volume was calculated as follows: length (cm)×[width (cm)]^2/2. […]

[7] = system: calf intestinal alkaline phosphatase; test: Conversion of phosphate pro-drug by calf intestinal alkaline phosphatase in vitro; format: in vitro ADME; details: 15 μM, 0.02 U/100 μL enzyme, pH 7.4, 30-120 minutes; FIG. 5
Protocol: (§4) The conversion into biologically active drug of phosphate pro-drugs by calf intestinal alkaline phosphatase and human placental alkaline phosphatase was measured in vitro using purified enzymes. Purified calf intestinal alkaline phosphatase (Roche Diagnostic Inc. Laval, Quebec, Canada) or human placental alkaline phosphatase (Sigma-Aldrich Canada Ltd. Oakville, Ontario, Canada) was added at a concentration of 0.02 U/100 μL to a solution containing 15 μM of Compound 66, 20 mM Tris-HCl, pH 7.4 and 0.9% NaCl. The solutions were incubated for 30, 60 or 120 minutes. A solution containing 15 μM of Compound 66, 20 mM Tris-HCl, pH 7.4 and 0.9% NaCl was used as a reference (time=0 minutes). To each solution, an equal volume (100 μL) of ice-cold acetonitrile was added, and then the mixture was vortexed and transferred to glass vials. A standard concentration curve of the pro-drug and the drug was prepared in 10 mM Tris-HCl, pH 7.4, 0.45% NaCl and 50% acetonitrile. All samples were immediately analyzed by LC/MS.

[8] = target: T1, human placental alkaline phosphatase (Homo sapiens, UniProt P05187); test: Conversion of phosphate pro-drug by human placental alkaline phosphatase in vitro; format: in vitro ADME; details: 15 μM, 0.02 U/100 μL enzyme, pH 7.4, 30-120 minutes; FIG. 4
T1 construct: purchased Sigma-Aldrich Canada Ltd
Protocol: as §4

T1 sequence (P05187 23-506): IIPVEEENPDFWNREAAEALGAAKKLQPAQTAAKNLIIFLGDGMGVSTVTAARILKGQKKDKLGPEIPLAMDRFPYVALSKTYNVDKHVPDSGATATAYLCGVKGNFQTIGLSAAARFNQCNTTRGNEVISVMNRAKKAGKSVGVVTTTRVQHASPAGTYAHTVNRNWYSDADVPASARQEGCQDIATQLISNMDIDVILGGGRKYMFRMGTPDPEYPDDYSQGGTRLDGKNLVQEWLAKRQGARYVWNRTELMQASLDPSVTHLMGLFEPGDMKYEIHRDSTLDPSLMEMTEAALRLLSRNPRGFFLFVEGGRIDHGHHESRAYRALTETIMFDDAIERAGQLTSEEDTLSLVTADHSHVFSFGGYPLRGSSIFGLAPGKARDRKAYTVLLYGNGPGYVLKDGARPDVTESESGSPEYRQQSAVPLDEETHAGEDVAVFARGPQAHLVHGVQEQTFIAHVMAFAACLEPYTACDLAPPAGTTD

N.N.[Cl][Pt][Cl] [cisplatin]
deaths in the group ([1]; days 29 and 32, 4 mg/kg IP, group of ten mice): Two mice died
body weight lost by the mouse that died ([1]; mouse that died on day 29, 4 mg/kg IP): 2.2 g
body weight lost by the mouse that died ([1]; mouse that died on day 32, 4 mg/kg IP): 7 g

COC1=CC(c2cc3ccccc3[nH]2)=N/C1=C\c1[nH]c(C)cc1C [Compound 1 tartrate]
reduction in tumor growth compared to vehicle ([2]; 4.5 mg/kg IV once a day for five days, FIG. 3): statistically significant (p<0.0001) reduction in tumor growth
average tumor size compared to vehicle ([2]; days 36 and 39, 4.5 mg/kg): significantly (p<0.001) smaller tumors on average
solubility ([3]; water (stated for Compound 66), filtrate of 0.2 μM filter by LC/MS, listed as Compound 1 Tartrate salt): 100 µg/mL
precipitation of the formulation ([4]; listed as Compound 1 Tartrate Salt): tends to precipitate one hour after its preparation
change in body weight [1]: no significant changes in body weight
change in body weight ([1]; listed as Compound 1 Tartrate): non-significant weight loss
effect on ATP levels in cancer cells versus normal cells [5]: significantly more effective at lowering ATP levels in the cancer cell lines H1299 and C33A compared with the ATP levels in normal cell lines HMEC and MRC-5

COC1=CC(c2cc3ccccc3[nH]2)=N/C1=C\c1[nH]c(C)cc1C [Compound 1]
solubility in water (in words) ([3]; water): poorly soluble in water

COC1=CC(c2cc3ccccc3[nH]2)=N/C1=C\c1[nH]c(C)cc1C [Compound 1 Mesylate Salt]
precipitation of the formulation [4]: shows no evidence of precipitation 72 hours after its preparation
growth of prostatic tumors [6]: significantly reduce the growth of prostatic tumors in mice

COC1=CC(c2cc3ccccc3n2C(=O)CC(C)(C)c2c(C)cccc2OP(=O)(O)O)=N/C1=C/c1[nH]c(C)cc1C [Compound 66]
conversion of pro-drug into Compound 1 [7]: convert a fraction of the pro-drug Compound 66 present in solution into the drug Compound 1 within two hours
conversion of pro-drug into Compound 1 [8]: convert a fraction of the pro-drug Compound 66 present in solution into the drug Compound 1 within two hours
growth of prostatic tumors [6]: significantly reduce the growth of prostatic tumors in mice
